23 molecules from patent US20090312288A1 (TAKEDA PHARMACEUTICAL COMPANY LIMITED, priority 2008, published 2009) can be followed below.

One may read the IC50 as the concentration needed to halve the response being measured.

SMILES strings stand for the structures. Where only a bound is given, the exact number is not on record here.

For the experiment, the target named is Aurora B/INCENP (Homo sapiens, UniProt Q96GD4). The experiment can be described thus: Determination of inhibition of AIK: Aurora B/INCENP direct fluorescence polarization (IMAP) assay. As to conditions: 10 uM ATP, 0.8 nM Aurora B/INCENP; values given as bins; read-out: IC50 of Exemplified Compounds Against AIK B. The experiment is classed as biochemical.
Sequence of Aurora B/INCENP (Q96GD4 whole entry): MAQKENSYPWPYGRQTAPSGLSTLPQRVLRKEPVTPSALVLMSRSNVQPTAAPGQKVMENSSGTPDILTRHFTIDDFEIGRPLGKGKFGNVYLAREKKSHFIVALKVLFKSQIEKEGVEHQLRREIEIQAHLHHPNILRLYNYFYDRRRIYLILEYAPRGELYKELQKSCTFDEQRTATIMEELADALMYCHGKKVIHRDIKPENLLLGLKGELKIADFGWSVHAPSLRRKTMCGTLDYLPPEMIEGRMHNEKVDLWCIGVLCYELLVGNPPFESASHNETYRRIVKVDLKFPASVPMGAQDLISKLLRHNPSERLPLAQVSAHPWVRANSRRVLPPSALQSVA
Sequence of Aurora B/INCENP (Q9NQS7 whole entry partner): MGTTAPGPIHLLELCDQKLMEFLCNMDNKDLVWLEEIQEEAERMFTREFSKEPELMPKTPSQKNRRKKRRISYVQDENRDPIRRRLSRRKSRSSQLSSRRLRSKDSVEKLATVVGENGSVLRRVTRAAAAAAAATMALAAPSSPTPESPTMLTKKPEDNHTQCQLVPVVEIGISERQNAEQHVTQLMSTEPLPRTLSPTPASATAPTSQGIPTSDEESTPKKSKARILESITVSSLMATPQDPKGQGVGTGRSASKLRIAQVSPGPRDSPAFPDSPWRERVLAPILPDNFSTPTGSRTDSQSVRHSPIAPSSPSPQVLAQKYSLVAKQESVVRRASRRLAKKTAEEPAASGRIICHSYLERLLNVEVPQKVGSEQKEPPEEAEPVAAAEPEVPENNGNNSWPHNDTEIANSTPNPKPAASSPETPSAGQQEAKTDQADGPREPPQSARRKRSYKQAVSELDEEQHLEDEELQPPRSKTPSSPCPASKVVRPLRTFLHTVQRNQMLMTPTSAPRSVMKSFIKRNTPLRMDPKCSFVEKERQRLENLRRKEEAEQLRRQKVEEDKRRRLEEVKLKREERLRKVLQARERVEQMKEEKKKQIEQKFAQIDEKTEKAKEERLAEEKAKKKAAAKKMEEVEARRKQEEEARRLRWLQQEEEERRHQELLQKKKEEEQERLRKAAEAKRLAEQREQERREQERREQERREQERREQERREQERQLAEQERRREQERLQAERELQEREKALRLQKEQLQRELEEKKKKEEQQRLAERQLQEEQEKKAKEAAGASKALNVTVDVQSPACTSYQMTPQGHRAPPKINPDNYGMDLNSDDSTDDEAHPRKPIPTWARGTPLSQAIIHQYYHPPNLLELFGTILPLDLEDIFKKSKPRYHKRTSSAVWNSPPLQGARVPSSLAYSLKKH
Take `Cc1cnc2[nH]c3c(OC[C@@H]4CNCCO4)ccc(-c4cccc(S(=O)(=O)C5CC5)c4)c3c2c1` [Compound 358, (S)-2-((5-(3-(cyclopropylsulfonyl)phenyl)-3-methyl-9H-pyrido[2,3-b]indol-8-yloxy)methyl)morpholine]: the IC50 was less than 4 nM.

With `Cc1cnc2[nH]c3c(OC[C@H]4CNCCO4)ccc(-c4cccc(S(=O)(=O)C5CC5)c4)c3c2c1` [Compound 359, (R)-2-((5-(3-(cyclopropylsulfonyl)phenyl)-3-methyl-9H-pyrido[2,3-b]indol-8-yloxy)methyl)morpholine], the IC50 was less than 4 nM.

As to `Cc1cnc2[nH]c3c(OC[C@@H]4CN(CCO)CCO4)ccc(-c4cccc(S(=O)(=O)C5CC5)c4)c3c2c1` [Compound 363, (S)-2-(2-((5-(3-(cyclopropylsulfonyl)phenyl)-3-methyl-9H-pyrido[2,3-b]indol-8-yloxy)methyl)morpholino)ethanol], the half-inhibitory concentration (IC50) is 4 to 5.5 nM.

Take `Cc1cnc2[nH]c3c(OC[C@@H]4CN(C)CCO4)ccc(-c4cccc(S(=O)(=O)C5CC5)c4)c3c2c1` [Compound 370, (S)-2-((5-(3-(cyclopropylsulfonyl)phenyl)-3-methyl-9H-pyrido[2,3-b]indol-8-yloxy)methyl)-4-methylmorpholine]: the IC50 is 4 to 5.5 nM.

For `Cc1cnc2[nH]c3c(OC[C@H]4CN(C)CCO4)ccc(-c4cccc(S(=O)(=O)C5CC5)c4)c3c2c1` [Compound 371, (R)-2-((5-(3-(cyclopropylsulfonyl)phenyl)-3-methyl-9H-pyrido[2,3-b]indol-8-yloxy)methyl)-4-methylmorpholine], the IC50 is less than 4 nM.

With `Cc1cnc2[nH]c3c(OC[C@@H]4CN(CCOP(=O)(O)O)CCO4)ccc(-c4cccc(S(=O)(=O)C5CC5)c4)c3c2c1` [Compound 373, (S)-2-(2-((5-(3-(cyclopropylsulfonyl)phenyl)-3-methyl-9H-pyrido[2,3-b]indol-8-yloxy)methyl)morpholino)ethyl dihydrogen phosphate], the IC50 lay within 4 to 5.5 nM.

For the molecule `Cc1cnc2[nH]c3c(OC[C@H]4CN(CCOP(=O)(O)O)CCO4)ccc(-c4cccc(S(=O)(=O)C5CC5)c4)c3c2c1` [Compound 375, (R)-2-(2-((5-(3-(cyclopropylsulfonyl)phenyl)-3-methyl-9H-pyrido[2,3-b]indol-8-yloxy)methyl)morpholino)ethyl dihydrogen phosphate], the IC50 was less than 4 nM.

As for `Cc1cnc2[nH]c3c(OC[C@H](O)CN4CCOCC4)ccc(-c4cccc(S(=O)(=O)C5CC5)c4)c3c2c1` [Compound 380, (R)-1-(5-(3-(cyclopropylsulfonyl)phenyl)-3-methyl-9H-pyrido[2,3-b]indol-8-yloxy)-3-morpholinopropan-2-ol], the IC50 was in the range of 4 to 5.5 nM.

Regarding `Cc1cnc2[nH]c3c(OC[C@@H](CN4CCOCC4)OP(=O)(O)O)ccc(-c4cccc(S(=O)(=O)C5CC5)c4)c3c2c1` [Compound 382, (R)-1-(5-(3-(cyclopropylsulfonyl)phenyl)-3-methyl-9H-pyrido[2,3-b]indol-8-yloxy)-3-morpholinopropan-2-yl dihydrogen phosphate], the IC50 is less than 4 nM.

Consider `CCS(=O)(=O)c1cccc(-c2ccc(O[C@H](C)CCO)c3[nH]c4ncc(C)cc4c23)c1` [Compound 388, (R)-3-(5-(3-(ethylsulfonyl)phenyl)-3-methyl-9H-pyrido[2,3-b]indol-8-yloxy)butan-1-ol], for which the concentration for half-maximal inhibition (IC50) was 4 to 5.5 nM.

Take `CCS(=O)(=O)c1cccc(-c2ccc(O[C@@H](C)CCO)c3[nH]c4ncc(C)cc4c23)c1` [Compound 389, (S)-3-(5-(3-(ethylsulfonyl)phenyl)-3-methyl-9H-pyrido[2,3-b]indol-8-yloxy)butan-1-ol]: the IC50 fell in the range of 4 to 5.5 nM.

Take `CCS(=O)(=O)c1cccc(-c2ccc(O[C@@H](C)COP(=O)(O)O)c3[nH]c4ncc(C)cc4c23)c1` [Compound 391, (S)-2-(5-(3-(ethylsulfonyl)phenyl)-3-methyl-9H-pyrido[2,3-b]indol-8-yloxy)propyl dihydrogen phosphate]: the IC50 lay within 4 to 5.5 nM.

As for `Cc1cnc2[nH]c3c(OC[C@H](CO)CN(C)C)ccc(-c4cccc(S(=O)(=O)C5CC5)c4)c3c2c1` [Compound 401, (S)-3-(5-(3-(cyclopropylsulfonyl)phenyl)-3-methyl-9H-pyrido[2,3-b]indol-8-yloxy)-2-((dimethylamino)methyl)propan-1-ol], the IC50 was less than 4 nM.

Take `Cc1cnc2[nH]c3c(OC[C@@H](CO)CN(C)C)ccc(-c4cccc(S(=O)(=O)C5CC5)c4)c3c2c1` [Compound 402, (R)-3-(5-(3-(cyclopropylsulfonyl)phenyl)-3-methyl-9H-pyrido[2,3-b]indol-8-yloxy)-2-((dimethylamino)methyl)propan-1-ol]: the IC50 is less than 4 nM.

In the case of `Cc1cnc2[nH]c3c(O)ccc(-c4cccc(S(=O)(=O)C5CC5)c4)c3c2c1` [Compound 404, 5-(3-(cyclopropylsulfonyl)phenyl)-3-methyl-9H-pyrido[2,3-b]indol-8-ol], the IC50 is less than 4 nM.

With `CCNCCCOc1ccc(-c2cccc(S(=O)(=O)C3CC3)c2)c2c1[nH]c1ncc(C)cc12` [Compound 407, 3-(5-(3-(cyclopropylsulfonyl)phenyl)-3-methyl-9H-pyrido[2,3-b]indol-8-yloxy)-N-ethylpropan-1-amine], the IC50 was less than 4 nM.

On to `Cc1cnc2[nH]c3c(OCCCNCCO)ccc(-c4cccc(S(=O)(=O)C5CC5)c4)c3c2c1` [Compound 408, 2-(3-(5-(3-(cyclopropylsulfonyl)phenyl)-3-methyl-9H-pyrido[2,3-b]indol-8-yloxy)propylamino)ethanol], for which the IC50 was less than 4 nM.

For the molecule `CCS(=O)(=O)c1cccc(-c2ccc(OCCCn3cncn3)c3[nH]c4ncc(C)cc4c23)c1` [Compound 409, 8-(3-(1H-1,2,4-triazol-1-yl)propoxy)-5-(3-(ethylsulfonyl)phenyl)-3-methyl-9H-pyrido[2,3-b]indole], the IC50 is greater than 13 nM.

Turning to `CCS(=O)(=O)c1cccc(-c2ccc(OCc3ccncc3)c3[nH]c4ncc(C)cc4c23)c1` [Compound 411, 5-(3-(ethylsulfonyl)phenyl)-3-methyl-8-(pyridin-4-ylmethoxy)-9H-pyrido[2,3-b]indole], the IC50 was 4 to 5.5 nM.

Consider `CCS(=O)(=O)c1cccc(-c2ccc(OCCCc3cccnc3)c3[nH]c4ncc(C)cc4c23)c1` [Compound 414, 5-(3-(ethylsulfonyl)phenyl)-3-methyl-8-(3-(pyridin-3-yl)propoxy)-9H-pyrido[2,3-b]indole], for which the IC50 lay in the range of 8.6 to 13 nM.

For `CCS(=O)(=O)c1cccc(-c2ccc(OCCCn3cnnc3)c3[nH]c4ncc(C)cc4c23)c1` [Compound 416, 8-(3-(4H-1,2,4-triazol-4-yl)propoxy)-5-(3-(ethylsulfonyl)phenyl)-3-methyl-9H-pyrido[2,3-b]indole], the IC50 was in the range of 5.6 to 8.5 nM.

Regarding `CCS(=O)(=O)c1cccc(-c2ccc(OCCCn3cccc3)c3[nH]c4ncc(C)cc4c23)c1` [Compound 421, 8-(3-(1H-pyrrol-1-yl)propoxy)-5-(3-(ethylsulfonyl)phenyl)-3-methyl-9H-pyrido[2,3-b]indole], the IC50 was greater than 13 nM.

As for `CCS(=O)(=O)c1cccc(-c2ccc(OCC3CCCCO3)c3[nH]c4ncc(C)cc4c23)c1` (centres unmarked) [Compound 423, 5-(3-(ethylsulfonyl)phenyl)-3-methyl-8-((tetrahydro-2H-pyran-2-yl)methoxy)-9H-pyrido[2,3-b]indole], the IC50 is 8.6 to 13 nM.
